Experimental data: PubChem BioAssay AID1259407 (Chemical Carcinogenesis Research Information System (CCRIS), 2018)
Calls of active or inactive are those of the source. How the calls were made is not given here.

Tested on: CCRIS mutagenicity, Ames/micronucleus/aberration tests
Assay: CCRIS mutagenicity studies
[1] = Test System: AMES SALMONELLA TYPHIMURIUM, Strain/Indicator: TA98, Metabolic Activation: NONE, Method: STANDARD PLATE
[2] = Test System: AMES SALMONELLA TYPHIMURIUM, Strain/Indicator: TA100, Metabolic Activation: NONE, Method: STANDARD PLATE
[3] = Test System: AMES SALMONELLA TYPHIMURIUM, Strain/Indicator: TA102, Metabolic Activation: NONE, Method: STANDARD PLATE
[4] = Test System: AMES SALMONELLA TYPHIMURIUM, Strain/Indicator: TA100, Metabolic Activation: RAT, LIVER, S-9, AROCLOR 1254, Method: STANDARD PLATE

In the case of `CC(C)=CCCC(C)CC=O` (stereo unspecified), the mutagenic call (Test System: AMES SALMONELLA TYPHIMURIUM, Strain/Indicator: TA97A, Metabolic Activation: NONE, Method: STANDARD PLATE) was “inactive; negative”, the mutagenic call (Test System: AMES SALMONELLA TYPHIMURIUM, Strain/Indicator: TA97A, Metabolic Activation: RAT LIVER S-9, AROCLOR 1254, Method: STANDARD PLATE) was “inactive; negative” and the mutagenic call [1] was “inactive; negative”. The mutagenic call (Test System: AMES SALMONELLA TYPHIMURIUM, Strain/Indicator: TA98, Metabolic Activation: RAT LIVER S-9, AROCLOR 1254, Method: STANDARD PLATE) was “inactive; negative”, the mutagenic call [2] was “inactive; negative” and the mutagenic call (Test System: AMES SALMONELLA TYPHIMURIUM, Strain/Indicator: TA100, Metabolic Activation: RAT LIVER S-9, AROCLOR 1254, Method: STANDARD PLATE) was “inactive; negative”. For the same compound, the mutagenic call [3] was “inactive; negative” and the mutagenic call (Test System: AMES SALMONELLA TYPHIMURIUM, Strain/Indicator: TA102, Metabolic Activation: RAT LIVER S-9, AROCLOR 1254, Method: STANDARD PLATE) was “inactive; negative”.

For `O=[N+]([O-])C1=Cc2cccc3cccc1c23`, the mutagenic call [1] was “active; positive”.

For `CCOC(=O)CBr`, the mutagenic call (End Point: IN VITRO CHROMOSOMAL ABERRATIONS, Test System: CHL CELLS, Metabolic Activation: RAT, LIVER, S-9, SODIUM PHENOBARBITAL AND 5,6-BENZOFLAVONE) was “inactive; negative; authors report equivocal results for structural changes at highest dos”, the mutagenic call (Test System: AMES SALMONELLA TYPHIMURIUM, Strain/Indicator: TA98, Metabolic Activation: NONE, Method: PREINCUBATION) was “inactive; negative” and the mutagenic call [1] was “inactive; negative”. The mutagenic call (Test System: AMES SALMONELLA TYPHIMURIUM, Strain/Indicator: TA98, Metabolic Activation: RAT LIVER S-9, PHENOBARBITAL AND BETA-NAPHTHOFLAVONE, Method: PREINCUBATION) was “inactive; negative”, the mutagenic call (Test System: AMES SALMONELLA TYPHIMURIUM, Strain/Indicator: TA98, Metabolic Activation: RAT, LIVER, S-9, AROCLOR 1254, Method: STANDARD PLATE) was “inactive; negative” and the mutagenic call (Test System: AMES SALMONELLA TYPHIMURIUM, Strain/Indicator: TA100, Metabolic Activation: NONE, Method: PREINCUBATION) was “inactive; negative”. The mutagenic call [2] was “inactive; negative”, the mutagenic call (Test System: AMES SALMONELLA TYPHIMURIUM, Strain/Indicator: TA100, Metabolic Activation: RAT LIVER S-9, PHENOBARBITAL AND BETA-NAPHTHOFLAVONE, Method: PREINCUBATION) was “inactive; negative” and the mutagenic call [4] was “inactive; negative”. For the same compound, the mutagenic call (Test System: AMES SALMONELLA TYPHIMURIUM, Strain/Indicator: TA102, Metabolic Activation: NONE, Method: PREINCUBATION) was “inactive; negative”, the mutagenic call (Test System: AMES SALMONELLA TYPHIMURIUM, Strain/Indicator: TA102, Metabolic Activation: RAT LIVER S-9, PHENOBARBITAL AND BETA-NAPHTHOFLAVONE, Method: PREINCUBATION) was “inactive; negative” and the mutagenic call (Test System: AMES SALMONELLA TYPHIMURIUM, Strain/Indicator: TA104, Metabolic Activation: NONE, Method: PREINCUBATION) was “inactive; negative”. For the same compound, the mutagenic call (Test System: AMES SALMONELLA TYPHIMURIUM, Strain/Indicator: TA104, Metabolic Activation: RAT LIVER S-9, PHENOBARBITAL AND BETA-NAPHTHOFLAVONE, Method: PREINCUBATION) was “active; positive”, the mutagenic call (Test System: AMES SALMONELLA TYPHIMURIUM, Strain/Indicator: TA1535, Metabolic Activation: HAMSTER, LIVER, S-9, AROCLOR 1254, Method: STANDARD PLATE) was “inactive; negative” and the mutagenic call (Test System: AMES SALMONELLA TYPHIMURIUM, Strain/Indicator: TA1535, Metabolic Activation: NONE, Method: PREINCUBATION) was “inactive; negative”. The mutagenic call (Test System: AMES SALMONELLA TYPHIMURIUM, Strain/Indicator: TA1535, Metabolic Activation: NONE, Method: STANDARD PLATE) was “inactive; negative”, the mutagenic call (Test System: AMES SALMONELLA TYPHIMURIUM, Strain/Indicator: TA1535, Metabolic Activation: RAT LIVER S-9, PHENOBARBITAL AND BETA-NAPHTHOFLAVONE, Method: PREINCUBATION) was “inactive; negative” and the mutagenic call (Test System: AMES SALMONELLA TYPHIMURIUM, Strain/Indicator: TA1535, Metabolic Activation: RAT, LIVER, S-9, AROCLOR 1254, Method: STANDARD PLATE) was “inactive; negative”. The mutagenic call (Test System: AMES SALMONELLA TYPHIMURIUM, Strain/Indicator: TA1537, Metabolic Activation: HAMSTER, LIVER, S-9, AROCLOR 1254, Method: STANDARD PLATE) was “inactive; negative”, the mutagenic call (Test System: AMES SALMONELLA TYPHIMURIUM, Strain/Indicator: TA1537, Metabolic Activation: NONE, Method: PREINCUBATION) was “inactive; negative” and the mutagenic call (Test System: AMES SALMONELLA TYPHIMURIUM, Strain/Indicator: TA1537, Metabolic Activation: NONE, Method: STANDARD PLATE) was “inactive; negative”. The mutagenic call (Test System: AMES SALMONELLA TYPHIMURIUM, Strain/Indicator: TA1537, Metabolic Activation: RAT LIVER S-9, PHENOBARBITAL AND BETA-NAPHTHOFLAVONE, Method: PREINCUBATION) was “inactive; negative”, the mutagenic call (Test System: AMES SALMONELLA TYPHIMURIUM, Strain/Indicator: TA1537, Metabolic Activation: RAT, LIVER, S-9, AROCLOR 1254, Method: STANDARD PLATE) was “inactive; negative” and the mutagenic call (Test System: AMES SALMONELLA TYPHIMURIUM, Strain/Indicator: TA1538, Metabolic Activation: HAMSTER, LIVER, S-9, AROCLOR 1254, Method: STANDARD PLATE) was “inactive; negative”. The mutagenic call (Test System: AMES SALMONELLA TYPHIMURIUM, Strain/Indicator: TA1538, Metabolic Activation: NONE, Method: STANDARD PLATE) was “inactive; negative”, the mutagenic call (Test System: AMES SALMONELLA TYPHIMURIUM, Strain/Indicator: TA1538, Metabolic Activation: RAT, LIVER, S-9, AROCLOR 1254, Method: STANDARD PLATE) was “inactive; negative” and the mutagenic call (Test System: E.COLI, Strain/Indicator: WP2UVRA/PKM101, Metabolic Activation: NONE, Method: PREINCUBATION) was “inactive; negative”. For the same compound, the mutagenic call (Test System: E.COLI, Strain/Indicator: WP2UVRA/PKM101, Metabolic Activation: RAT LIVER S-9, PHENOBARBITAL AND BETA-NAPHTHOFLAVONE, Method: PREINCUBATION) was “active; positive”, the mutagenic call (Test System: E.COLI, Strain/Indicator: WP2UVRA, Metabolic Activation: NONE, Method: PREINCUBATION) was “inactive; negative” and the mutagenic call (Test System: E.COLI, Strain/Indicator: WP2UVRA, Metabolic Activation: RAT LIVER S-9, PHENOBARBITAL AND BETA-NAPHTHOFLAVONE, Method: PREINCUBATION) was “inactive; negative”. For the same compound, the mutagenic call (Test System: MOUSE LYMPHOMA, Strain/Indicator: L5178Y (TK+/TK-), Metabolic Activation: NONE, Method: SUSPENSION/PLATE) was “active; positive. reevaluation of results: inconclusive” and the mutagenic call (Test System: MOUSE LYMPHOMA, Strain/Indicator: L5178Y (TK+/TK-), Metabolic Activation: RAT, LIVER, S-9, AROCLOR 1254, Method: SUSPENSION/PLATE) was “active; positive. reevaluation of results: inconclusive”.

With `c1ccc2c(c1)C1OOC2c2ccccc21` the mutagenic call [1] was “inactive; negative”, the mutagenic call [2] was “inactive; negative” and the mutagenic call [4] was “inactive; negative”.

For `CN(C)CCOc1ccc(/C(=C(/CCCl)c2ccccc2)c2ccccc2)cc1`, the mutagenic call (End Point: IN VITRO CHROMOSOMAL ABERRATIONS, Test System: SYRIAN HAMSTER EMBRYO (SHE) CELLS, Metabolic Activation: NONE) was “active; positive (ploidy changes)”.

With `Cc1ccc2c(=O)c3cccc4ccc1c2c43` the mutagenic call [4] was “active; positive”.

For `Cc1ccc(S(=O)(=O)OCc2ccccc2)cc1`, the mutagenic call [2] was “inactive; negative”.

`CCn1cc(C(=O)O)c(=O)c2cc(F)c(N3CCNCC3)nc21` was tested, and the mutagenic call (Test System: AMES SALMONELLA TYPHIMURIUM, Strain/Indicator: HISG428, Metabolic Activation: NONE, Method: STANDARD PLATE) was “inactive; negative”, the mutagenic call (Test System: AMES SALMONELLA TYPHIMURIUM, Strain/Indicator: TA92, Metabolic Activation: NONE, Method: STANDARD PLATE) was “active; positive” and the mutagenic call [3] was “active; positive”. The mutagenic call (Test System: AMES SALMONELLA TYPHIMURIUM, Strain/Indicator: TA103, Metabolic Activation: NONE, Method: STANDARD PLATE) was “active; positive”, the mutagenic call (Test System: AMES SALMONELLA TYPHIMURIUM, Strain/Indicator: TA104, Metabolic Activation: NONE, Method: STANDARD PLATE) was “inactive; negative” and the mutagenic call (Test System: AMES SALMONELLA TYPHIMURIUM, Strain/Indicator: TA2638, Metabolic Activation: NONE, Method: STANDARD PLATE) was “active; positive”. The mutagenic call (Test System: AMES SALMONELLA TYPHIMURIUM, Strain/Indicator: TA2661, Metabolic Activation: NONE, Method: STANDARD PLATE) was “inactive; negative”, the mutagenic call (Test System: AMES SALMONELLA TYPHIMURIUM, Strain/Indicator: TA2662, Metabolic Activation: NONE, Method: STANDARD PLATE) was “active; positive” and the mutagenic call (Test System: AMES SALMONELLA TYPHIMURIUM, Strain/Indicator: TA2678, Metabolic Activation: NONE, Method: STANDARD PLATE) was “inactive; negative”.
